Columns and labels:
prolyl endopeptidase = molecular target: T1, prolyl endopeptidase (Rattus norvegicus, UniProt O70196); assay: Prolyl endopeptidase-inhibitory activity; type: biochemical; conditions: for IC50: prolyl endopeptidase extracted from rat brain, pH 7.0, 30° C., read-out: IC50
T1 construct: prolyl endopeptidase extracted from rat brain; from tissue; host or cells: rat brain
Method in brief: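 Rat brain prolyl endopeptidase was preincubated with compound for 30 min at 30 °C in 0.1 M potassium sodium phosphate, pH 7.0. Substrate Suc-Gly-Pro-MCA was then added from a 0.2 mM stock and the reaction run 1 h at 30 °C. After ice stop, fluorescence was read (ex 370/em 440 nm), and IC50 was estimated graphically from % inhibition.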

trypsin = molecular target: T2, trypsin (Bos taurus, UniProt P00760); assay: Determination of trypsin-inhibitory activity; type: biochemical, bovine; conditions: read-out: inhibition rate, trypsin
T2 construct: purchased Sigma; host or cells: bovine pancreas
T2 sequence (P00760 24-246): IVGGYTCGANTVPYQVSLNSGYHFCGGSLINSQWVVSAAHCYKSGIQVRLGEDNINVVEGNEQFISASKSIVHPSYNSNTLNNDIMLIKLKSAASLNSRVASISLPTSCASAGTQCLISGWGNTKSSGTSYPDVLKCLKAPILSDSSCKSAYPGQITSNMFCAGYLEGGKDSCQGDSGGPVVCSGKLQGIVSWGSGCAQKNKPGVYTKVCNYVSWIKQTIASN
Method in brief: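 Bovine pancreatic trypsin and compound in 50 mM Tris-HCl pH 8.0 with Pro-Phe-Arg-MCA substrate, 1 h at 30 °C, stopped on ice. Fluorescence at ex 370/em 440 nm. Inhibition rate from compound, no-enzyme and no-compound wells.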

chymotrypsin = molecular target: T3, chymotrypsin (Bos taurus, UniProt P00766); assay: Determination of chymotrypsin-inhibitory activity; type: biochemical, bovine; conditions: read-out: inhibition rate, chymotrypsin
T3 construct: purchased Sigma; host or cells: bovine pancreas
Method in brief: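 Bovine pancreatic chymotrypsin (0.2 μM enzyme solution) assayed in 50 mM Tris-HCl, pH 8.0, with the fluorogenic substrate Suc-Leu-Leu-Val-Tyr-MCA. Fluorescence was read with and without inhibitor, and percent inhibition was calculated from the fluorescence values.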

leucine aminopeptidase = assay: Determination of leucine aminopeptidase-inhibitory activity; type: biochemical, swine; parameters: unit not given here
Method in brief: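 Swine kidney leucine aminopeptidase ([…] enzyme solution) was measured in 50 mM Tris-HCl pH 8.0 with 7-leucyl-4-methyl-coumarinamide (200 μM substrate solution). Inhibition rate was calculated from fluorescence readings.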

elastase = molecular target: T4, elastase (Sus scrofa, UniProt P00772); assay: Determination of elastase-inhibitory activity; type: biochemical, swine; conditions: read-out: inhibition rate, elastase
T4 construct: purchased Sigma; host or cells: swine pancreas
T4 sequence (P00772 27-266): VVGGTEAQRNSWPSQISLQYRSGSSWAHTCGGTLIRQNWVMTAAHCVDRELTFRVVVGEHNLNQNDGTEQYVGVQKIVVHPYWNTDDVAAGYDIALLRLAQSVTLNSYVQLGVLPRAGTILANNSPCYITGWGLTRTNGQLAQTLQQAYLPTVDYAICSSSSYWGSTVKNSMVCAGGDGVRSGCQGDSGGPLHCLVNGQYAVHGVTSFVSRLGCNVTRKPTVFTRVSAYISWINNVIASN
Method in brief: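 Porcine pancreatic elastase (0.2 μM solution) with 200 μM succinyl-Ala-Pro-Ala-4-methylcoumarinamide substrate solution in 1 mM Tris-HCl pH 8.5. Fluorescence measured and inhibition rate calculated by formula.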

cathepsin B = molecular target: T5, cathepsin B (Bos taurus, UniProt P07688); assay: Determination of cathepsin B-inhibitory activity; type: biochemical, bovine; conditions: read-out: inhibition rate, cathepsin B
T5 construct: purchased Sigma; host or cells: bovine spleen
Method in brief: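 Bovine spleen cathepsin B (0.02 μM solution) was assayed in 100 mM sodium phosphate, pH 6.0, with 1.33 mM EDTA. The substrate was Z-Phe-Arg-4-methylcoumarinamide (200 μM solution). Percent inhibition was calculated from fluorescence readings.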

[1] = read-out: inhibition rate, prolyl endopeptidase

T1 sequence (O70196 whole entry): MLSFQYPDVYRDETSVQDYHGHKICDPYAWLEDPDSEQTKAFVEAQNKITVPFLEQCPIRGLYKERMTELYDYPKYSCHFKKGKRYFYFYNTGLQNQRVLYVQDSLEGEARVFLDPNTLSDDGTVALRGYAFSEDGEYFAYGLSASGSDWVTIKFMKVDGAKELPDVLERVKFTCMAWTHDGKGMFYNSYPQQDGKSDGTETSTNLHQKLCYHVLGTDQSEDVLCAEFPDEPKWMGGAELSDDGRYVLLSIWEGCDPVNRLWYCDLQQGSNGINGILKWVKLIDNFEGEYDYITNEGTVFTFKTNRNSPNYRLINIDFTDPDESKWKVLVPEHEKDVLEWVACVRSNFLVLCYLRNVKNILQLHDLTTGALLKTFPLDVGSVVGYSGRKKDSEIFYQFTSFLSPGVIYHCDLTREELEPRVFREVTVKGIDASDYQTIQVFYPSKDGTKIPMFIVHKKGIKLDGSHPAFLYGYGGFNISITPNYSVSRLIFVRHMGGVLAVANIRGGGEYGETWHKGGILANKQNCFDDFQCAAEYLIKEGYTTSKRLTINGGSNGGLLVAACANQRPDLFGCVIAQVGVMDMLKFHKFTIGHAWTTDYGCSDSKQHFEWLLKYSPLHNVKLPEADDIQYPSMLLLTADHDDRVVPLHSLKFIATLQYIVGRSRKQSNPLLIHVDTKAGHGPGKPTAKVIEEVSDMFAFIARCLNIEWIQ

| SMILES | inhibition at 1 µM (prolyl endopeptidase; [1]) [%] | IC50 (prolyl endopeptidase) [nM] | inhibition at 1 µM (trypsin) [%] | inhibition at 1 µM (chymotrypsin) [%] | inhibition rate, leucine aminopeptidase (leucine aminopeptidase; 1 μM) | inhibition at 1 µM (elastase) [%] | inhibition at 1 µM (cathepsin B) [%] | inhibition at 0.1 µM (prolyl endopeptidase; 0.1 μM, read-out: inhibition rate, prolyl endopeptidase) [%] | inhibition at 0.1 µM (trypsin; 0.1 μM) [%] | inhibition at 0.1 µM (chymotrypsin; 0.1 μM) [%] | inhibition rate, leucine aminopeptidase (leucine aminopeptidase; 0.1 μM) | inhibition at 0.1 µM (elastase; 0.1 μM) [%] | inhibition at 0.1 µM (cathepsin B; 0.1 μM) [%] |
| --- | --- | --- | --- | --- | --- | --- | --- | --- | --- | --- | --- | --- | --- |
| COc1ccc(OCC(=O)[C@@H]2CCCN2C(=O)[C@@H]2CCCN2C(=O)CSc2ccccc2)cc1 [Compound 49, (25)-2-(4-Methoxyphenoxyacetyl)-1-{N-[(phenylthio)acetyl]-L-prolyl}pyrrolidine] | 98 | 20 | 0 | 0 | 0 | 0 | 0 |  |  |  |  |  |  |
| COc1ccc(OCC(=O)[C@@H]2CCCN2C(=O)[C@@H]2CCCN2C(=O)OCC23CC4CC(CC(C4)C2)C3)cc1 [Compound 50, (2S)-1-{N-[(1-Adamantyl)methoxycarbonyl]-L-prolyl}-2-(4-methoxyphenoxyacetyl)pyrrolidine] | 97 | 500 | 0 | 0 | 0 | 0 | 0 |  |  |  |  |  |  |
| O=C(COc1ccccc1)[C@@H]1CCCN1C(=O)[C@@H]1CSCN1C(=O)NCc1ccccc1 [Compound 51, (2S)-1-[N-(Benzylaminocarbonyl)-L-thioprolyl]-2-(phenoxyacetyl)pyrrolidine] | 98 | 15 | 0 | 0 | 0 | 0 | 0 |  |  |  |  |  |  |
| CCOC(=O)CN(Cc1ccccc1)C(=O)N1CCC[C@H]1C(=O)N1CCC[C@H]1C(=O)COc1ccccc1 [Compound 52, (2S)-1-{N-[N-Benzyl-N-(ethoxycarbonylmethyl)aminocarbonyl]-L-prolyl}-2-(phenoxyacetyl)pyrrolidine] |  | 2 |  |  |  |  |  | 97 | 0 | 0 | 0 | 0 | 0 |
| CCOC(=O)[C@@H](NC(=O)N1CCC[C@H]1C(=O)N1CCC[C@H]1C(=O)COc1ccccc1)c1ccccc1 [Compound 53, (2S)-1-[N-[[(S)-α-(Ethoxycarbonyl)benzylamino]carbonyl]-L-prolyl]-2-(phenoxyacetyl)pyrrolidine] | 96 | 30 | 0 | 0 | 0 | 0 | 0 |  |  |  |  |  |  |
| O=C(COc1ccccn1)[C@@H]1CCCN1C(=O)[C@@H]1CCCN1C(=O)NCc1ccccc1 [Compound 54, (2S)-1-[N-(Benzylaminocarbonyl)-L-prolyl]-2-[(2-pyridyloxy)acetyl]pyrrolidine] | 85 | 200 | 0 | 0 | 0 | 0 | 0 |  |  |  |  |  |  |
